Read-outs that look alike come from different tables or passages of the source.
What was measured:
S. aureus strain SA1199 = test: Screening and titration of potentiators with erythromycin (4 μg/ml), viability read by transfer to fresh medium; type: cell-based, Staphylococcus aureus; settings: in the presence of 4 μg/ml erythromycin
Method: In an exemplary screening assay, in order to identify a candidate acyl hydrazide, oxy amide or 8-hydroxy quinoline composition as an antibacterial agent potentiator, the S. aureus strain SA1199 may be used. The procedure for screening is as follows: logarithmically growing S. aureus SA1199 are inoculated to a final OD600 of 0.002 into 150 μl of LB medium containing a bacteriostatic concentration of an antimicrobial agent for that strain, for example, erythromycin (4 μg/ml) at four times the Minimal Inhibitory
Concentration (MIC). […] In preliminary studies the inventors determined that under these conditions up to 2000 viable cells were transferred after incubation with erythromycin. As confirmed by broth microdilution, at least a 1000-fold reduction in viability was required to see no visible growth after 20 hours. Acyl hydrazide, oxy amide or 8-hydroxy quinoline antibiotic potentiators may be identified as those compounds that increase the bactericidal effect of the erythromycin.
The macrolide erythromycin was chosen in the initial screen for two reasons: first, its mechanism of inhibition of protein synthesis is well characterized and second, as a macrolide, erythromycin is representative of an expanding class of agents which includes the second most prescribed antibiotic, azithromycin.
In preliminary studies the inventors determined that under these conditions up to 2000 viable cells were transferred after incubation with erythromycin. As confirmed by broth microdilution, at least a 1000-fold reduction in viability was required to see no visible growth after 20 h.
Next the activity of the hit compounds was compared by titration of the compounds in the presence of erythromycin at 4 μg/ml as described above.
(§1) Activity of the compound is depicted as the minimal concentration required to kill 99.9% of S. aureus in the presence of 4 μg/ml erythromycin.

S. aureus SA 29213 = test: 55Fe transport assay (intracellular iron accumulation); type: cell-based, Staphylococcus aureus; settings: for ^55Fe Accm.: compound at 2 μg/ml, S. aureus SA 29213
Method: Next, investigated was whether INF 401 affects intracellular iron accumulation. An ^55Fe transport assay (modified from Sebulsky, 2000) was used to examine the ability of INF 401 to transport iron inside the cell. Briefly, exponentially growing cells were diluted to OD600 0.1 in LB, incubated with ^55FeCl3 for 30 min at 37° C., washed and counted in scintillation fluid using the tritium channel of a scintillation system. […] However, the presence of INF 401 in either the absence or presence of antibiotic led to a dramatic increase in iron accumulation (209,215 and 231,621 DPM, respectively).
as §1

S. aureus SA1199 [1] = test: Checkerboard two-fold broth microdilution, MIC and MBC; type: cell-based, Staphylococcus aureus; settings: for MBC^b = MBC in the presence of 5 μg/ml of INF 401: plus 5 μg/ml INF 401, unit not given
Method: Checkerboard titration was performed with INF 401 and erythromycin to quantitate the effects of the combination on Staphylococcal growth using two-fold serial broth microdilution. After overnight incubation, cells were transferred to fresh medium, as described above, to determine those combinations that were bactericidal to S. aureus. […] Although not determined according to NCCLS recommended procedures ([…]), the inventors considered this the Minimal Bactericidal Concentration (MBC).
The inventors next evaluated whether INF 401 was bactericidal in combination with other protein synthesis inhibitors which are bacteriostatic to S. aureus. Checkerboard studies were performed with two-fold dilutions of each antibiotic in combination with INF 401 using the assay described above in Example 2. After overnight incubation the MIC of each antibiotic was determined by visualization of bacterial growth. […] The MBC of each antibiotic was determined as described in Example 2 in the absence or presence of INF 401.

S. aureus (SA1199) = test: Time kill studies (CFU counts); type: cell-based, Staphylococcus aureus; settings: antibiotic 1×MIC + 5 μg/ml INF 401
Method: FIG. 5A, FIG. 5B and FIG. 5C. […]
The initial inoculum number was determined by plating an appropriate dilution on LB agar plates and determining the number of colony forming units (CFUs). At different time points an aliquot was withdrawn from each tube and cell viability was determined by plating an appropriate dilution and counting CFUs after overnight incubation.

S. pneumoniae = test: Bactericidal activity (MBC) of translational inhibitors with or without INF 401 in S. pneumoniae; type: cell-based, Streptococcus pneumoniae; settings: antibiotic alone
Text: It would be desirable that an antibiotic potentiator of the present invention is active not only in S. aureus but also in other bacterial pathogens. The inventors have begun studies to investigate whether INF 401 can also potentiate the activity of translational inhibitors in another Gram positive pathogen, S. pneumoniae.

[2] = test system: S. aureus strain ATTC 29213; test: Characterization of killing by INF 401 plus chloramphenicol (viability, morphology, protein, DNA, metal dependence); type: cell-based, Staphylococcus aureus; settings: chloramphenicol 20 μg/ml or INF 401 2 μg/ml alone
Method: Time kill study of the effect of NF 401 in combination with chloramphenicol. Exponentially growing cells (S. aureus strain 29213) were diluted to OD600 0.1 in LB supplemented with 20 μg/ml of chloramphenicol (Cm) in the presence or absence of INF 401 (2 μg/ml) and incubated with shaking at 37° C. At indicated time points cells were harvested, washed with LB and plated on LB agar plates. Number of colony forming units (CFUs) was determined after overnight incubation.
Time kill study of the effect of iron on the bactericidal activity of INF 401. S. aureus strain 29213 was grown overnight in iron-limited Staphylococcal Siderophore Detection (SSD) medium (Heinrichs, 1999) supplemented with 2 μM FeCl3, washed with SSD and diluted 1:100 into the fresh medium containing 0, 2 or 50 μm FeCl3. Exponentially growing cells were diluted to OD600 0.01 in the corresponding medium supplemented when indicated with 20 μg/ml of chloramphenicol (Cm) and 2 μg/ml of INF 401. At 0, 1, 2 and 3.5 hours cells were plated in different dilutions to the LB agar plates and number of colony forming units (CFUs) was counted next day.

S. aureus SA1199 [3] = test: Checkerboard two-fold broth microdilution, MIC and MBC; type: cell-based, Staphylococcus aureus; settings: Table 2, plus 10 μg/ml INF 402, unit not given
S. aureus ATCC 29213 = test: MBEC assay system, checkerboard: planktonic MIC and biofilm MBEC; type: cell-based, Staphylococcus aureus; settings: INF 401 at 0.3 μg/ml where in label
Method: These studies were performed via the method of Dr. Howard Ceri (University of Calgary), who recently developed a method for the routine determination of the antibiotic susceptibility of biofilms. To date, the inventors have tested the effect of the combination of INF 401 on the ability of either clindamycin or rifampin to eradicate S. aureus biofilms in vitro. S. aureus ATCC 29213 was selected for the study as previous studies of this isolate as a biofilm had been conducted and the isolate served as a quality assurance organism for NCCLS standardization of antibiotic testing. Biofilms were formed as previously described for this organism (Ceri et al., 1999) using the MBEC™ assay system. Checkerboard studies were performed with each antibiotic versus INF 401.

[4] = Table 2, S. aureus SA1199, unit inferred
[5] = Staphylococcus aureus, Table 1, S. aureus SA1199, antibiotic alone, unit inferred, read-out: MBC^a = MBC in the absence of INF 401
[6] = Staphylococcus aureus, Table 1, S. aureus SA1199, unit inferred, read-out: MIC

With `O=C(Cc1ccccc1)N/N=C/c1c(O)ccc2ccccc12` the “Activity (minimal concentration required to kill 99.9% of S. aureus)” value (S. aureus strain SA1199) was 0.15 µg/mL and the “^55Fe Accm.” value (S. aureus SA 29213) was 36,941 DPM.
With `O=C(N/N=C/c1c(O)ccc2ccccc12)Nc1ccccc1` the “Activity (minimal concentration required to kill 99.9% of S. aureus)” value (S. aureus strain SA1199) was 0.3 µg/mL and the “^55Fe Accm.” value (S. aureus SA 29213) was 14,400 DPM.
In the case of `COc1ccccc1NC(=O)N/N=C/c1c(O)ccc2ccccc12`, the “Activity (minimal concentration required to kill 99.9% of S. aureus)” value (S. aureus strain SA1199) is reported as >10 µg/mL and the “^55Fe Accm.” value (S. aureus SA 29213) is reported as 1,900 DPM.
`Cc1cccc(CNC(=O)N/N=C/c2c(O)ccc3ccccc23)c1` was tested, and the “Activity (minimal concentration required to kill 99.9% of S. aureus)” value (S. aureus strain SA1199) was >10 µg/mL and the “^55Fe Accm.” value (S. aureus SA 29213) was 1,500 DPM.
With `Cc1ccc(CNC(=O)N/N=C/c2c(O)ccc3ccccc23)cc1` the “Activity (minimal concentration required to kill 99.9% of S. aureus)” value (S. aureus strain SA1199) was 1.25 µg/mL and the “^55Fe Accm.” value (S. aureus SA 29213) was 9,100 DPM.
For `O=C(N[C@H](CO)[C@H](O)c1ccc([N+](=O)[O-])cc1)C(Cl)Cl` [Chloramphenicol], the MIC (S. aureus SA1199 [1]; Staphylococcus aureus, SA1199) was 8 µg/mL, the MBC (S. aureus SA1199 [1]; Staphylococcus aureus, SA1199, read-out: MBC^a = MBC in the absence of INF 401, Table 1, S. aureus SA1199, antibiotic alone, unit inferred) was > 64 µg/mL and the MBC (S. aureus SA1199 [1]; Staphylococcus aureus, SA1199, read-out: MBC^a = MBC in the absence of INF 401, Table 2, S. aureus SA1199, antibiotic alone, unit inferred) was > 64 µg/mL. For the same compound, the “MBC^b = MBC in the presence of 5 μg/ml of INF 401” value (“MBC^b = MBC … of INF 401” for short) (S. aureus SA1199 [1]; Table 1, S. aureus SA1199) was 4, the MIC (S. aureus SA1199 [1]; [4]) was 8 µg/mL and the “reduction in cell viability, antibiotic in combination with INF 401” value (S. aureus (SA1199)) was 3 log10. For the same compound, the “bactericidal concentration in the absence of INF 401 as multiple of MIC” value (S. pneumoniae) was 2 ×MIC, the “amount of ^55Fe accumulated by cells, single agent” value (S. aureus SA 29213; LB, ^55FeCl3 30 min 37° C., chloramphenicol alone or INF 401 in absence of antibiotic) was 4,976 DPM and the “effect of single agent on DNA integrity” value [2] was “did not affect DNA integrity”. For the same compound, the “MBC^b = MBC in the presence of 10 μg/ml of INF 402” value (S. aureus SA1199 [3]) was 8.
For `[H]/N=C(\N/C(=N/[H])NCCCCCCNC(=N)NC(=N)Nc1ccc(Cl)cc1)Nc1ccc(Cl)cc1` [Chlorhexidine], the MBC (S. aureus SA1199 [1]; [5]) was 4 µg/mL, the MIC (S. aureus SA1199 [1]; [6]) was 1 µg/mL and the “MBC^b = MBC … of INF 401” value (S. aureus SA1199 [1]; Table 1, S. aureus SA1199) was 1.
With `CCC[C@@H]1C[C@@H](C(=O)N[C@@H]([C@H]2O[C@H](SC)[C@H](O)[C@@H](O)[C@H]2O)[C@H](C)Cl)N(C)C1` [Clindamycin] the “bactericidal concentration of antibiotic alone as multiple of MIC” value (S. aureus SA1199 [1]; S. aureus, absence of INF 401) was 4 ×MIC, the MBC (S. aureus SA1199 [1]; [5]) was 4 µg/mL and the MIC (S. aureus SA1199 [1]; [6]) was 0.25 µg/mL. For the same compound, the “MBC^b = MBC … of INF 401” value (S. aureus SA1199 [1]; Table 1, S. aureus SA1199) was 0.125, the MBC^a = MBC in the absence of INF 401 (S. aureus SA1199 [1]; Table 2, S. aureus SA1199, antibiotic alone, unit inferred) was 4 µg/mL and the MIC (S. aureus SA1199 [1]; [4]) was 0.25 µg/mL. The “reduction in cell viability, antibiotic in combination with INF 401” value (S. aureus (SA1199)) was 3 log10, the MIC (S. aureus ATCC 29213; Staphylococcus aureus, ATCC29213, planktonic population) was < 1 µg/mL and the MBEC (S. aureus ATCC 29213; biofilm population) was 256 µg/mL. For the same compound, the “MBC^b = MBC in the presence of 10 μg/ml of INF 402” value (S. aureus SA1199 [3]) was 2.
With `N[C@@H]1CON=C1O` [Cycloserine] the MBC (S. aureus SA1199 [1]; [5]) was > 256 µg/mL, the MIC (S. aureus SA1199 [1]; [6]) was 32 µg/mL and the “MBC^b = MBC … of INF 401” value (S. aureus SA1199 [1]; Table 1, S. aureus SA1199) was 32.

Reference: patent US20050043369A1, “Bactericidal antimicrobial methods and compositions for use in treating gram positive infections” (Protez Pharmaceuticals Inc., priority 2000, published 2005)
